{"source": "patent US8952222B2", "about": "“Herbicide resistant sunflower plants derived from RW-B cultivar” (Anglo Netherlands Grain B.V., priority 2008, dated 2015)", "system": "sunflower line RW-B", "assay": "Resistance to different AHAS-inhibitor herbicides, Phytotoxicity Index (FIG. 4)", "type": "in vivo", "conditions": "concentration of at least 67 grams of active ingredient per hectare", "text": "Sunflower lines: The following genetic sunflower lines were used in determining AHAS resistance: two S lines (“B770” and “HA89”), two lines resistant to SUs derived from the population SURES (SuBL and SuRL), two lines resistant to IMIs derived from the population IMISUN (“Rha 426” and “B770imi”) and the line “RW-B”. […] SURES and IMISUN are breeding populations release by the USDA. B770 is a proprietary line from Nidera. B770imi is a proprietary line with B770 background carrying the resistant gene Imr1. RW-B was obtained as described above.\nPlants were grown in a greenhouse under natural light conditions supplemented with 400 W halide lamps to provide a 14 h day length. Day/night temperatures were 25 and 20° C., respectively. […] Plants without any symptoms were recorded as “0,” increasing levels of stunting and yellowing with respect to the untreated control plants were recorded as “1” to “4,” increasing levels of leaf abnormalities and leaf necrosis were recorded from “5” to “8,” and dead plants with total necrosis of the apex were recorded as “9.” PI data for each experiment were analyzed by an ANOVA test, means were compared by a LSD test.\nResponse of sunflower lines (B770, HA89, SuBL, SuRL, Rha426, B770imi and RW-B) to four different families of AHAS inhibiting herbicides. […] The injury was measured using Phytotoxicity Index (PI)."}
{"smiles": "CCOc1nc(F)cc2nc(S(=O)(=O)Nc3c(Cl)cccc3C(=O)OC)nn12", "note": "[cloransulam-methyl]", "values": [{"measurement": "resistance of RW-B", "result": "resistance"}]}
